In ChEMBL document CHEMBL1201862, “PubChem BioAssay data set” (2004):
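Assay format: 96-well plates, 48-hour exposure. GI50 = concentration required for 50% inhibition of growth.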 The source made the active and inactive calls. No stated cut-off is given here; in the data, active = GI50 up to about 1.1 µM and inactive = higher.

Experiments:
Test in all cases: NCI-60 cell line screen, 48 h
[1] = system: NCI-H226
[2] = system: NCI-H522
[3] = system: SK-MEL-2
[4] = system: OVCAR-4
[5] = system: M14
[6] = system: OVCAR-3
[7] = system: HCT-116
[8] = system: OVCAR-5
[9] = system: SW-620
[10] = system: SNB-19
[11] = system: SF-539
[12] = system: U-251
[13] = system: UACC-62
[14] = system: NCI-H23
[15] = system: HOP-92
[16] = system: T47D
[17] = system: Hs-578T
[18] = system: MDA-MB-435
[19] = system: MCF7
[20] = system: BT-549

Measured: GI50

CC1(Cl)C(=O)NC(=O)N([C@H]2C[C@H](O)[C@@H](CO)O2)C1N=[N+]=[N-] (stereo partly specified)
inactive: [1] > 100 µM | [2] > 100 µM | [3] > 100 µM | [4] > 96.2 µM | [5] > 100 µM | [6] > 100 µM | [7] > 100 µM | [8] > 100 µM | [9] > 100 µM | [10] > 100 µM | [11] > 100 µM | [12] > 100 µM | [13] > 100 µM | [14] > 100 µM | [15] > 100 µM

N#CC1(C#N)C2C=CC(C3CC=CC32)C1(C#N)C#N (stereo unspecified)
inactive: [16] 3.38 µM | [1] > 50 µM | [2] 1.22 µM | [3] 13.1 µM | [4] 4.01 µM | [5] 2.01 µM | [6] 2.45 µM | [7] 1.93 µM | [17] 17.9 µM | [8] 8.39 µM | [9] 2.13 µM | [18] 7.16 µM | [10] > 50 µM | [11] 9.66 µM | [12] 10.4 µM | [13] 8.77 µM | [14] 8.32 µM | [19] 6.52 µM | [15] 4.27 µM

O=C(O)CSc1nc2ccccc2[nH]1
inactive: [16] > 100 µM | [2] > 100 µM | [3] 74.1 µM | [4] > 100 µM | [5] > 100 µM | [6] > 100 µM | [20] > 100 µM | [7] > 100 µM | [17] > 100 µM | [8] > 100 µM | [9] > 100 µM | [18] > 100 µM | [10] > 100 µM | [12] > 100 µM | [13] > 100 µM | [14] > 100 µM | [15] > 100 µM

NS(=O)(=O)c1ccc(NC(=O)c2cccc3c(=O)c4ccccc4[nH]c23)cc1
inactive: [1] 23.4 µM | [2] 3.8 µM | [3] 41 µM | [4] 29.6 µM | [5] > 100 µM | [6] > 100 µM | [7] 32.4 µM | [8] > 100 µM | [9] 78.9 µM | [10] 76.4 µM | [11] 22.7 µM | [12] 48.4 µM | [13] 41.8 µM | [14] 67.3 µM | [15] > 100 µM

O=[N+]([O-])c1nccn1COCCI
inactive: [1] > 100 µM | [2] > 100 µM | [3] > 100 µM | [4] > 100 µM | [5] > 100 µM | [6] > 100 µM | [7] > 100 µM | [8] > 100 µM | [9] > 100 µM | [10] > 100 µM | [11] > 100 µM | [12] > 100 µM | [13] > 100 µM | [14] > 100 µM | [15] > 100 µM

CC(=O)c1cc2c3c(c1)c1cc4c(cc1c(=O)n3CC2)OCO4
inactive: [1] > 100 µM | [2] 7.21 µM | [3] > 100 µM | [4] 25.8 µM | [5] 59.7 µM | [6] 33.8 µM | [7] 4.71 µM | [8] 78.7 µM | [9] 7.78 µM | [10] 28.5 µM | [11] 32.6 µM | [12] 27 µM | [13] 17.3 µM | [14] 75.5 µM | [15] 54.8 µM

CC1=NN(c2nc(N)nc(/C(C#N)=C\C3COc4ccccc4C3=O)n2)C(C)(C)C1 (stereo unspecified)
inactive: [16] 18.2 µM | [1] 22.8 µM | [2] 26.2 µM | [3] 14.8 µM | [4] 34 µM | [5] 23.7 µM | [6] 22.6 µM | [7] 20.6 µM | [17] 24 µM | [8] 35.6 µM | [9] 30.7 µM | [18] 32.1 µM | [11] 26.2 µM | [12] 24.5 µM | [14] 27 µM | [19] 32.4 µM | [15] 36.5 µM

O=S(=O)(O)c1cc(O)c(/N=N/c2ccc3ccccc3c2O)c2ccccc12 [ERIOCHROME BLUE BLACK B]
inactive: [16] 15.8 µM | [1] 16.1 µM | [2] 15.1 µM | [3] 26.9 µM | [4] 78.3 µM | [5] 13.3 µM | [6] 4.71 µM | [20] 37.3 µM | [7] 33.4 µM | [17] 40.8 µM | [8] 33.3 µM | [9] 33.9 µM | [18] 1.97 µM | [10] 37.8 µM | [12] 32.4 µM | [13] 14.8 µM | [14] 15.2 µM | [15] 28.5 µM
